For assay [1], the target named is T1, LSD1 (Homo sapiens, UniProt O60341). Kind of assay: LSD1 demethylase inhibition assay (Amplex Red peroxide/peroxidase-coupled). Type of assay: biochemical. More on the design: purchased BPS Bioscience Inc. Particulars: from the IC50 values for LSD1, MAO-A and MAO-B. The method, then:
Compounds for use in the methods of the invention can be identified by their ability to inhibit LSD1. The ability of compounds to inhibit LSD1 can be tested as follows. Human recombinant LSD1 protein was purchased from BPS Bioscience Inc. In order to monitor LSD1 enzymatic activity and/or its inhibition rate by the LSD1 inhibitor(s) of interest, di-methylated H3-K4 peptide (Millipore) was chosen as a substrate.
Within the experiment, each concentration of inhibitor was tested in duplicate. […] The enzymatic reactions were set up in a 50 mM sodium phosphate, pH 7.4 buffer. At the end of the incubation, Amplex® Red reagent and horseradish peroxidase (HPR) solution were added to the reaction according to the recommendations provided by the supplier (Invitrogen), and left to incubate for 30 extra minutes at room temperature in the dark. A 1 μM H2O2 solution was used as a control of the kit efficiency. […] Arbitrary units were used to measure level of H2O2 produced in the absence and/or in the presence of inhibitor.
The maximum demethylase activity of LSD1 was obtained in the absence of inhibitor and corrected for background fluorescence in the absence of LSD1. The Ki (IC50) of each inhibitor was estimated at half of the maximum activity.

The target in assay [2] is T1, LSD1. The conditions noted are these: Ueda et al. (2009) J. Am. Chem. Soc. 131(48):17536-17537; cited from earlier work.
Assay [3] deals with dimethylated H3K4 in SH-SY5Y cells. Kind of assay: Western blot for H3K4 methylation in SH-SY5Y cells. It is filed as cell-based. The conditions noted are these: Dual-1 100 μM vs parnate 250 μM. From the text:
FIG. 3 Compound Dual-1 Increases Histone Methylation.
B-actin was used as a loading control.

SMILES strings stand for the structures.

`NC(=O)CN[C@H]1C[C@@H]1c1ccc(OCc2ccccc2)cc1` (racemic) [Compound 1]: the “selectivity class (LSD1 vs MAO-A and MAO-B)” value in assay [1] is “dual LSD1/MAO-B selective inhibitors”. Further, the IC50 in assay [2] was 2500 nM. Also, the “potency at increasing global H3K4 methylation levels compared to tranylcypromine” value in assay [3] is listed as “ten-fold or more potent”.

Usually IC50 stands for the midpoint of a concentration-inhibition curve.

Source of the values: patent US20140329833A1, “LYSINE DEMETHYLASE INHIBITORS FOR INFLAMMATORY DISEASES OR CONDITIONS” (ORYZON GENOMICS, S.A, priority 2011, published 2014).
